Like-named read-outs stand apart in the source and are kept apart here.
Tests used:
Meprin β = target: T1, Meprin β (Homo sapiens, UniProt Q16820); assay: fluorogenic peptide cleavage assay; assay type: biochemical
T1 construct: gene MEP1B
T1 sequence (Q16820 62-652): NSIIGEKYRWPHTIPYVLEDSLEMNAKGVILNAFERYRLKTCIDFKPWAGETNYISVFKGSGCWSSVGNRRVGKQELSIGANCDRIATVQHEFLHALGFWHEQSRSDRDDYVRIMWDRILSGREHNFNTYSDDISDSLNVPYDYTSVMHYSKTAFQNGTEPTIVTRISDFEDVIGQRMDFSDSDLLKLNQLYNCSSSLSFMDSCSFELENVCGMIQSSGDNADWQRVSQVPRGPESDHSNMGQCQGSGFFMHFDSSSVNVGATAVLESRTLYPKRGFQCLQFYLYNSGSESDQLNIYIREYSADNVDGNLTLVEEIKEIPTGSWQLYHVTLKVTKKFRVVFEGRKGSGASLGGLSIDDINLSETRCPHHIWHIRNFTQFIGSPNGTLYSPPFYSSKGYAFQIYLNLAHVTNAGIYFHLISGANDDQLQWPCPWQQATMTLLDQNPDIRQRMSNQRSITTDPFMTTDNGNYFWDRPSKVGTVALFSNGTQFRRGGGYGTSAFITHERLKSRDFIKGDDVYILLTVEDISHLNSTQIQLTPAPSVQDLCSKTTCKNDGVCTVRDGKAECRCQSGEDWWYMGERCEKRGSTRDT
Source text: fluorogenic peptide cleavage assay on Meprin β

Meprin α = target: T2, Meprin α (Homo sapiens, UniProt Q16819); assay: fluorogenic peptide cleavage assay; assay type: biochemical
T2 construct: gene MEP1A
T2 sequence (Q16819 66-712): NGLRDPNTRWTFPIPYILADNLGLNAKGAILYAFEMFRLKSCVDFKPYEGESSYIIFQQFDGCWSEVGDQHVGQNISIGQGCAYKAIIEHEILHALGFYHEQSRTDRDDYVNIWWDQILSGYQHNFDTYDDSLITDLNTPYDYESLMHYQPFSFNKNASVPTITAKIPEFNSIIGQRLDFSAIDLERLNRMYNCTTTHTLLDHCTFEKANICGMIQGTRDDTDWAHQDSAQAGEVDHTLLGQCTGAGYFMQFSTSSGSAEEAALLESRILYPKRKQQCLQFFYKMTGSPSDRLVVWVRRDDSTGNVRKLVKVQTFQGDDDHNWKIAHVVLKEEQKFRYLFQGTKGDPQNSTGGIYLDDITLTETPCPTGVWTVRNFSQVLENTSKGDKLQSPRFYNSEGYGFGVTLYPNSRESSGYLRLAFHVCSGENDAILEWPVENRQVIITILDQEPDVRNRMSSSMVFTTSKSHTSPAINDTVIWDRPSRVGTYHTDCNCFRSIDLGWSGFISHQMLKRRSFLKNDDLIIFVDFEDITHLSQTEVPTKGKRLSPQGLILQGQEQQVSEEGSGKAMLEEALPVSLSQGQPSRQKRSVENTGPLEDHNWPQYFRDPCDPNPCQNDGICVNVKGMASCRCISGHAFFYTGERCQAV
Source text: fluorogenic peptide cleavage assay on Meprin α

[1] = […] Mca-YVADAPK-Dnp, […] enzyme, […] HEPES pH […] NaCl, […] CaCl2, […] °C

IC50 (Meprin β) [nM] | IC50 (Meprin α) [nM] | IC50 (Meprin β; [1]) [nM] | IC50 (Meprin α; [1]) [nM] | Molecule
744 ± 29 | 55 ± 11 |  |  | CCCCC[C@H](CC(=O)NO)C(=O)N[C@H](C(=O)N1CCC[C@H]1CO)C(C)C [Actinonin]
> 10000 | 185 ± 12 |  |  | CNC(=O)[C@H](Cc1c[nH]c2ccccc12)NC(=O)[C@@H](CC(=O)NO)CC(C)C [GM6001]
> 10000 | 393 ± 82 |  |  | COc1ccc(CCN(CCC(=O)NO)S(=O)(=O)c2ccc(NC(=O)NCCc3ccccc3)cc2)cc1 [S33A]
 |  | > 10000 | > 1000 | FG‐2575
